For ten compounds, IC50 and Ki results are on record in ChEMBL document CHEMBL3585326, “Discovery of potent carbonic anhydrase and acetylcholine esterase inhibitors: novel sulfamoylcarbamates and sulfamides derived from acetophenones” (Bioorg Med Chem, 2015).

The structures appear in SMILES notation.

This test deals with Acetylcholinesterase (Homo sapiens, UniProt P22303).
Acetylcholinesterase, sequence (P22303 whole entry): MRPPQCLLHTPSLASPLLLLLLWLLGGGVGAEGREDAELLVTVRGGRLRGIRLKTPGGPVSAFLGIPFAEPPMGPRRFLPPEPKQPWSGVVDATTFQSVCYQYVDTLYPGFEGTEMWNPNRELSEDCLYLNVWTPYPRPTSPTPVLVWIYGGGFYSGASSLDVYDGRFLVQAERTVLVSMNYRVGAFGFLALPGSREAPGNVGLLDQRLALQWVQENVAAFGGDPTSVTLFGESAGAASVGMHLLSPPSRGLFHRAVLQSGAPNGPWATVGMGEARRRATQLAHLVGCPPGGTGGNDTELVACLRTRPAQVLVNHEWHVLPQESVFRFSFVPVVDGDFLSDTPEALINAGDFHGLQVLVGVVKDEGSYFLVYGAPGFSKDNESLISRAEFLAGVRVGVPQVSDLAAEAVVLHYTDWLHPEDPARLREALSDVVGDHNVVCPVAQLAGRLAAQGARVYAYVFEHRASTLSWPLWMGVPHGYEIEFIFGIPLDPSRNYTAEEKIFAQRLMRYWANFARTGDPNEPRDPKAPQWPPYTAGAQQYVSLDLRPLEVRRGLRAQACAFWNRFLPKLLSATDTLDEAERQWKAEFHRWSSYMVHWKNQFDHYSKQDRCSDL
Description: Inhibition of acetylcholinesterase (unknown origin) assessed as AChI hydrolysis using AChI and DTNB as substrate by Ellman's method
For orientation: IC50 means the concentration that inhibits the measured activity by half. Low readings indicate higher potency, high ones lower potency. One may read the Ki as a measure of affinity in units of concentration, obtained from inhibition or displacement. Higher therefore signals a looser hold on the target. Turning to `COc1ccccc1C(C)NS(N)(=O)=O` (stereo not given), the midpoint of inhibition, the IC50, lay at 0.0269 nM and the Ki was found to be 0.0382 nM.
For `COc1ccc(C(C)NS(N)(=O)=O)cc1OC` (stereo not given), in that order: 0.0269 nM and 0.0049 nM.
The compound `COc1ccc(C(C)NS(=O)(=O)NC(=O)OCc2ccccc2)cc1` (stereo not given) returned an IC50 of 0.0269 nM and a Ki of 0.0045 nM.
Taken in the same sequence, the figures for `COc1cccc(OC)c1C(C)NS(N)(=O)=O` (stereo not given) were 0.0269 nM and 0.0081 nM.
For `COc1cccc(OC)c1C(C)NS(=O)(=O)NC(=O)OCc1ccccc1` (stereo not given), in that order: 0.0269 nM and 0.0105 nM.
For `COc1ccc(C(C)NS(=O)(=O)NC(=O)OCc2ccccc2)cc1OC` (stereo not given), in that order: 0.0269 nM and 0.0051 nM.
`COc1ccccc1C(C)NS(=O)(=O)NC(=O)OCc1ccccc1` (stereo not given) gave an IC50 of 0.0269 nM and an inhibition constant (Ki) of 0.0056 nM.
For `COc1ccc(OC)c(C(C)NS(N)(=O)=O)c1` (stereo not given), in that order: 0.0269 nM and 0.0056 nM.
For `COc1ccc(OC)c(C(C)NS(=O)(=O)NC(=O)OCc2ccccc2)c1` (stereo not given), in that order: 0.0269 nM and 0.0229 nM.
Compound `COc1ccc(C(C)NS(N)(=O)=O)cc1` (stereo not given) registered a half-maximal inhibitory concentration (IC50) of 0.0269 nM and an inhibitory constant (Ki) of 0.0063 nM.
